Target: T1, bacterially-produced Sestrin2 (Homo sapiens, UniProt P58004)
T1 construct: made in house; host or cells: Escherichia coli BL21 DE3 star
T1 sequence (P58004 1-480): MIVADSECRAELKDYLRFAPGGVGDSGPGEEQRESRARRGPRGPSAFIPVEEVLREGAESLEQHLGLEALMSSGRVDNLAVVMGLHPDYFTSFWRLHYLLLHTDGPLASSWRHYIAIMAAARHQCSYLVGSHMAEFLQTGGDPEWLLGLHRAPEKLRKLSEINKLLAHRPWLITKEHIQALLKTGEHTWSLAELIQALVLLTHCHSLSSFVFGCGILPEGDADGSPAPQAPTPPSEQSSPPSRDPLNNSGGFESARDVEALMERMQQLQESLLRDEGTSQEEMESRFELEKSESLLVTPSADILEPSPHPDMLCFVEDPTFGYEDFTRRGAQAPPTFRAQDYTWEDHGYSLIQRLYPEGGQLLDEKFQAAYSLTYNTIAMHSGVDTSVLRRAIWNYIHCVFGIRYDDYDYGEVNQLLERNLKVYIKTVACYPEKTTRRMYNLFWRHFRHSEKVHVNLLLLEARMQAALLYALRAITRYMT
Assay: Thermal shift (protein melting) assay
Assay type: binding
Conditions: Sestrin2 at 4 μM, Sypro orange; read-out: shift of the melting temperature of Sestrin2
Description: Specific binding of leucine to the bacterially produced Sestrin2 was further confirmed by thermal shift assays. The thermal shift (protein melting) assays were performed according to the LightCycler® 480 instruction manual. Briefly, for Sestrin2, 5× Sypro® orange dye and Sestrin2 at 4 μM were combined with or without leucine or arginine (at the indicated concentrations) in thermal shift buffer (100 mM Tris pH 7.4, 100 mM NaCl, and 1 mM DTT) in a volume of up to 10 μl in one well of a LightCycler® Multiwell 384-well plate. 20× Sypro® orange dye was used for the two control proteins, human choline acetyltransferase (ChAT) (at 4 μM) or Physconitrella patens hydroxycinnamoyl transferase (PpHCT) (at 2.5 μM). Each condition was tested in triplicate. The plate was subjected to a protocol in which the temperature increased from 20° to 85° C. at 0.06° C./second. Fluorescence was recorded and plotted over time, and melting temperatures were calculated as described in the LightCycler® 480 instruction manual. Briefly, the negative first derivative of the curve shown (change in fluorescence/change in temperature) was plotted against the temperature. The peak (i.e., lowest point on this curve) reflects the melting temperature. Each reported melting temperature is the mean±SD for three replicates from one experiment.

ΔTm: ≤ 8.5 °C
SMILES: CC(C)C[C@H](N)C(=O)O [leucine]

Reference: patent US10168338B2, “Methods of identifying modulators of sestrin-gator-2 interaction for modulating mTORC1 activity” (Whitehead Institute for Biomedical Research, priority 2014, dated 2019)
